Assay results taken from patent US11013696B2, “Lipids and lipid compositions for the delivery of active agents” (Novartis AG, priority 2013, dated 2021).

assay: Percent encapsulation of mRNA in lipid nanoparticles (Quant-iT Ribogreen); assay type: physicochemical; conditions: Table 2; leptin mRNA in LNP with the cationic lipid
Description: All equipment and disposable supplies are certified free of RNase activity by the manufacturer or rendered RNase free by use of the RNaseZap reagent (LifeTechnologies). mRNA is encapsulated at a cationic lipid amine to mRNA phosphate (N:P) molar ratio of 4:1. Lipids (cationic lipid, DSPC, cholesterol and lipidated PEG or stealth lipid) are dissolved in ethanol. The molar ratios are 40:10:38:2, respectively. The mixture is sonicated briefly, then gently agitated for 5 minutes and then maintained at 37° C. until use. mRNA is exchanged into citrate buffer pH 5.8-6.0 by use of Amicon Ultra-15 centrifugal concentrators, and the final concentration is adjusted to 0.5 mg/ml and held at 37° C. until use. An equal volume of lipids in ethanol, mRNA in citrate buffer, and citrate buffer alone are drawn into disposable syringes. Tubing leading from syringes containing lipids and mRNA are attached to the T junction, and tubing leading from the syringe containing citrate buffer alone is paired with the tubing exiting the T-junction over a collection vessel containing a stir bar on an active stir plate. Syringes are placed in a syringe pump set to expel contents at a flow rate of 1 ml per minute.
The pump is activated, and the collected mRNA in lipid nanoparticles is transferred to SnakeSkin dialysis tubing (10,000 MWCO, Thermo Scientific). Material is dialyzed against RNAse- and pyrogen-free 1× phosphate buffered saline overnight at 4° C.
Percent encapsulation of mRNA in lipid nanoparticles is determined using the Quant-iT Ribogreen RNA Assay kit (Life Technologies). The LNP-mRNA suspension is assayed in buffer (mRNA outside the particle), and buffer plus Triton X-100 detergent (total mRNA). The difference calculated is the mRNA inside the particle. Prepare a 1000 ng/mL stock from the RNA provided in the kit and use this to generate a standard curve (0 ng/ml, 15.63-1000 ng/ml) in TE and TE+0.75% Triton X-100. Prepare LNP-mRNA samples in TE buffer and TE buffer +0.75% Triton X-100 with appropriate dilution so that reading is in the range of standard curve (400-2,000 fold). In a 384-well plate (Costar non-treated #3573) add 0.04 ml of standard (in duplicate) or sample (in triplicate) per well. Dilute Ribogreen reagent 240-fold in TE buffer and add 0.06 ml per well. Mix contents of wells and measure fluorescence (excitation=480 nm, emission=520 nm). Subtract background values (no RNA) from standard and test sample values and determine the concentrations of RNA in the samples using the standard curves. Determine the percent encapsulation of the sample by dividing the difference in concentrations between sample+triton and sample in buffer alone by the sample+triton concentration.

Row | % encapsulation mRNA Leptin [%] | Compound
1 | 96.3 | CCCCCCCCCCCCC(CCOC(=O)CCC(OCCCCCCCC)OCCCCCCCC)OC(=O)OCCCN(C)C (stereo not shown) [Example 106, 3-(((3-(dimethylamino)propoxy)carbonyl)oxy)pentadecyl 4,4-bis(octyloxy)butanoate]
2 | 94.5 | CCCCCCCCCCCCC(CCOC(=O)CCCCC(OCCCCCCCC)OCCCCCCCC)OC(=O)OCCCN1CCCCC1 (stereo not shown) [Example 107, 3-(((3-(piperidin-1-yl)propoxy)carbonyl)oxy)pentadecyl 6,6-bis(octyloxy)hexanoate]
3 | 94.6 | CCCCCCCCCCCCC(CCOC(=O)CCCCC(OCCCCCCCC)OCCCCCCCC)OC(=O)OCCCN1CCNCC1 (stereo not shown) [Example 108, 3-(((3-(piperazin-1-yl)propoxy)carbonyl)oxy)pentadecyl 6,6-bis(octyloxy)hexanoate]
4 | 59.3 | CCCCCCCCCCCCC(CCOC(=O)CCCCC(OCCCCCCCC)OCCCCCCCC)OC(=O)OCCCN1CCN(C)CC1 (stereo not shown) [Example 110, 3-(((3-(4-methylpiperazin-1-yl)propoxy)carbonyl)oxy)pentadecyl 6,6-bis(octyloxy)hexanoate]
5 | 74.7 | CCCCCCCCCCCCC(CCOC(=O)CCCCC(OCCCCCCCC)OCCCCCCCC)OC(=O)OCC1CCN(C)CC1 (stereo not shown) [Example 111, 3-((((1-methylpiperidin-4-yl)methoxy)carbonyl)oxy)pentadecyl 6,6-bis(octyloxy)hexanoate]
6 | 32.9 | CCCCCCCCCCCCC(CCOC(=O)CCCCC(OCCCCCCCC)OCCCCCCCC)OC(=O)OCCCN1CCOCC1 (stereo not shown) [Example 112, 3-(((3-morpholinopropoxy)carbonyl)oxy) pentadecyl 6,6-bis(octyloxy) hexanoate]
7 | 37.5 | CCCCCCCCCCCCC(CCOC(=O)CCCCC(OCCCCCCCC)OCCCCCCCC)OC(=O)OCCN(CC)CC (stereo not shown) [Example 113, 3-(((2-(diethylamino)ethoxy)carbonyl)oxy)pentadecyl 6,6-bis(octyloxy)hexanoate]
8 | 5.0 | CCCCCCCCCCCCC(CCOC(=O)CCCCC(OCCCCCCCC)OCCCCCCCC)OC(=O)[C@H]1CCCN1C (stereo partly drawn) [Example 117, (2R)-1-((6,6-bis(octyloxy)hexanoyl)oxy) pentadecan-3-yl 1-methyl pyrrolidine-2-carboxylate]
9 | 12.8 | CCCCCCCCCCCCC(CCOC(=O)CCCCC(OCCCCCCCC)OCCCCCCCC)OC(=O)[C@@H]1CCCN1C (stereo partly drawn) [Example 118, (2S)-1-((6,6-bis(octyloxy)hexanoyl)oxy)pentadecan-3-yl 1-methylpyrrolidine-2-carboxylate]
10 | 83.8 | CCCCCCCCCCCCC(CCOC(=O)CCCCC(OCCCCCCCC)OCCCCCCCC)OC(=O)CCCCN(CC)CC (stereo not shown) [Example 123, 3-((5-(diethylamino)pentanoyl)oxy)pentadecyl 6,6-bis(octyloxy)hexanoate]
11 | 95.1 | CCCCCCCCOC(CCCCC(=O)OCCC(CCCCCCCC)OC(=O)OCCCN(CC)CC)OCCCCCCCC (stereo not shown) [Example 125, 3-(((3-(diethylamino)propoxy)carbonyl)oxy)undecyl 6,6-bis(octyloxy)hexanoate]
12 | 97.4 | CCCCCCCCCCC(CCOC(=O)CCCCC(OCCCCCCCC)OCCCCCCCC)OC(=O)OCCCN(CC)CC (stereo not shown) [Example 126, 3-(((3-(diethylamino)propoxy)carbonyl)oxy)tridecyl 6,6-bis(octyloxy)hexanoate]
13 | 96.7 | CCCCC/C=C\C/C=C\CCCCCCCCC(CCOC(=O)CCCCC(OCCCCCCCC)OCCCCCCCC)OC(=O)OCCCN(CC)CC (stereo not shown) [Example 127, (12Z,15Z)-3-(((3-(diethylamino)propoxy)carbonyl)oxy)henicosa-12,15-dien-1-yl 6,6-bis(octyloxy)hexanoate]

Second part, the compound before the results:

Row | Compound | % encapsulation mRNA Leptin [%]
14 | CCCCCCCC(=O)OCCCCCCCCCCC(CCOC(=O)CCCCCC(CCCCCC)CCCCCC)OC(=O)OCCCN(C)C (stereo not shown) [Example 64, 3-(((3-(dimethylamino)propoxy)carbonyl)oxy)-13-(octanoyloxy)tridecyl 7-hexyltridecanoate] | 93.0
15 | CC/C=C\C/C=C\C/C=C\CCCCCCCC(=O)OCC(COC(=O)CCCCCCC/C=C\C/C=C\C/C=C\CC)OC(=O)CCC(CCCCCCCCCCCC)OC(=O)OCCCN(C)C (stereo not shown) [Example 82, (9Z,9′Z,12Z,12′Z,15Z,15′Z)-2-((4-(((3-(dimethylamino)propoxy)carbonyl)oxy)hexadecanoyl)oxy)propane-1,3-diyl bis(octadeca-9,12,15-trienoate)] | 81.9
16 | CCCCCCCC/C=C\CCCCCCCC(=O)OCC(COC(=O)CCCCCCC/C=C\CCCCCCCC)OC(=O)CCC(CCCCCCCCCCCC)OC(=O)OCCCN(C)C (stereo not shown) [Example 83, (Z)-2-((4-(((3-(dimethylamino)propoxy)carbonyl)oxy)hexadecanoyl)oxy)propane-1,3-diyl dioleate] | 48.9
17 | CCCCCCCCCCCCCC(=O)OCC(COC(=O)CCCCCCCCCCCCC)OC(=O)CCC(CCCCCCCCCCCC)OC(=O)OCCCN(C)CC (stereo not shown) [Example 86, 2-((4-(((3-(ethyl(methyl)amino)propoxy)carbonyl)oxy)hexadecanoyl)oxy)propane-1,3-diyl ditetradecanoate] | 68.5
18 | CCCCCCCCCCCCC(CCC(=O)OC(COC(=O)CCCCCCCCCCC)COC(=O)CCCCCCCCCCC)OC(=O)OCCCN(C)CC (stereo not shown) [Example 89, 2-((4-(((3-(ethyl(methyl)amino)propoxy)carbonyl)oxy)hexadecanoyl)oxy)propane-1,3-diyl didodecanoate] | 87.0
19 | CCCCCCCCCCCCC(CCC(=O)OC(COC(=O)CCCCCCC)COC(=O)CCCCCCC)OC(=O)OCCCN(C)CC (stereo not shown) [Example 93, 2-((4-(((3-(ethyl(methyl)amino)propoxy)carbonyl)oxy)hexadecanoyl)oxy)propane-1,3-diyl dioctanoate] | 82.0
20 | CCCCCCCCCCCCC(OC(=O)OCCCN(CC)CC)C(=O)OC(COC(=O)CCCCCCC)COC(=O)CCCCCCC (stereo not shown) [Example 100, 2-((2-(((3-(diethylamino)propoxy)carbonyl)oxy)tetradecanoyl)oxy)propane-1,3-diyl dioctanoate)] | 91.5
21 | CCCCCCCCCCCCC(CCOC(=O)CCCCC(OCCCCCCCC)OCCCCCCCC)OC(=O)OCCCCN(CC)CC (stereo not shown) [Example 109, 3-(((4-(diethylamino)butoxy)carbonyl)oxy)pentadecyl 6,6-bis(octyloxy)hexanoate] | 80.6
22 | CCCCCCCCCCCCC(CCOC(=O)CCCCC(OCC(CCC)CCC)OCC(CCC)CCC)OC(=O)OCCCN(CC)CC (stereo not shown) [Example 114, 3-(((3-(diethylamino)propoxy)carbonyl)oxy)pentadecyl 6,6-bis((2-propylpentyl)oxy)hexanoate] | 98.4
23 | CCCCCCCCCCCCC(CCOC(=O)CCCCC(OCCC(CC)CC)OCCC(CC)CC)OC(=O)OCCCN(C)C (stereo not shown) [Example 116, 3-(((3-(dimethylamino)propoxy)carbonyl)oxy)pentadecyl 6,6-bis((3-ethylpentyl)oxy)hexanoate] | 93.3
24 | CCCCCCCCCCCCC(CCOC(=O)CCCCC(OCCCCCCCC)OCCCCCCCC)OC(=O)[C@H]1CCCN1 (stereo partly drawn) [Example 119, (2R)-1-((6,6-bis(octyloxy)hexanoyl)oxy)pentadecan-3-yl pyrrolidine-2-carboxylate] | 95.7
25 | CCCCCCCCCCCCC(CCOC(=O)CCCCC(OCCCCCCCC)OCCCCCCCC)OC(=O)C1(C)CCN(C)C1 (stereo not shown) [Example 120, 1-((6,6-bis(octyloxy)hexanoyl)oxy) pentadecan-3-yl 1,3-dimethylpyrrolidine-3-carboxylate] | 96.1
26 | CCCCCCCCCCCCC(CCOC(=O)CCCCC(OCCCCCCCC)OCCCCCCCC)OC(=O)CCC1CCN(C)CC1 (stereo not shown) [Example 121, 3-((3-(1-methylpiperidin-4-yl)propanoyl)oxy)pentadecyl 6,6-bis(octyloxy)hexanoate] | 71.2
27 | CCCCCCCCCCCCC(CCOC(=O)CCCCC(OCCCCCCCC)OCCCCCCCC)OC(=O)C1(C)CCN(C)CC1 (stereo not shown) [Example 122, 1-((6,6-bis(octyloxy)hexanoyl)oxy) pentadecan-3-yl 1,4-dimethylpiperidine-4-carboxylate] | 97.5
28 | CCCCCCCCCCCCC(CCOC(=O)CCCCC1OC(CCCCCCC)CC(CCCCCCC)O1)OC(=O)OCCCN(CC)CC (stereo not shown) [Example 124, 3-(((3-(diethylamino)propoxy)carbonyl)oxy)pentadecyl 5-(4,6-diheptyl-1,3-dioxan-2-yl)pentanoate] | 98.0
